Data as given in patent publication US4410629A, “ML-236B Derivatives and their preparation” (Sankyo Company Limited, priority 1980, dated 1983).
Counter-ions that a name gives are not always drawn.

Experiments:
[1] = test system: 3-hydroxy-3-methylglutaryl-coenzyme A reductase; conditions: competing with the rate-limiting enzyme HMG-CoA reductase; J. Antibiotics 29, 1346 (1976); cited from earlier work
[2] = test system: cholesterol biosynthesis; experiment: Inhibition of cholesterol biosynthesis (method of J. Biol. Chem. 234, 2835 (1959)); type: biochemical
[3] = test system: serum cholesterol levels; conditions: animals; J. Antibiotics 29, 1346 (1976); cited from earlier work

Structure (SMILES)	inhibition of the biosynthesis of cholesterol by enzymes or cultured cells [1]	concentration required to inhibit cholesterol biosynthesis by 50% [2] [µg/mL]	serum cholesterol levels [3]
CCC(C)C(=O)OC1CCC=C2C=CC(C)C(CCC3CC(O)CC(=O)O3)C21 (centres unmarked) [ML-236B]	inhibit the biosynthesis of cholesterol	0.01	significantly reduces serum cholesterol levels of animals
CC[C@H](C)C(=O)O[C@H]1CC=CC2=C[C@@H](O)[C@H](C)[C@H](CC[C@@H]3C[C@@H](O)CC(=O)O3)[C@H]21 [IsoM-4' lactone]		0.013	
CC[C@H](C)C(=O)O[C@H]1C[C@H](O)C=C2C=C[C@H](C)[C@H](CC[C@@H](O)C[C@@H](O)CC(=O)OC)[C@H]21 [M-4 methyl ester]		0.001	
CC[C@H](C)C(=O)O[C@H]1CC=CC2=C[C@@H](O)[C@H](C)[C@H](CC[C@@H](O)C[C@@H](O)CC(=O)OC)[C@H]21 [IsoM-4' methyl ester]		0.007	
CC[C@H](C)C(=O)O[C@H]1C[C@H](O)C=C2C=C[C@H](C)[C@H](CC[C@@H](O)C[C@@H](O)CC(=O)O)[C@H]21 [M-4 sodium salt]		0.0008	
CC[C@H](C)C(=O)O[C@H]1C[C@@H](O)C=C2C=C[C@H](C)[C@H](CC[C@@H](O)C[C@@H](O)CC(=O)O)[C@H]21 [M-4' sodium salt]		0.00049	
